US20140309210A1, “INDAZOLE COMPOUNDS, COMPOSITIONS AND METHODS OF USE THEREOF” (Genentech, Inc., priority 2011, published 2014)

The compounds below were run against T1, purified ITK (Invitrogen PV3875) (Homo sapiens, UniProt Q08881) (assay: ITK peptide phosphorylation assay (Caliper LabChip or LCMS)). Conditions: Table 1, Examples 141-279.
T1 construct: purchased Invitrogen PV3875
T1 sequence (Q08881 1-620): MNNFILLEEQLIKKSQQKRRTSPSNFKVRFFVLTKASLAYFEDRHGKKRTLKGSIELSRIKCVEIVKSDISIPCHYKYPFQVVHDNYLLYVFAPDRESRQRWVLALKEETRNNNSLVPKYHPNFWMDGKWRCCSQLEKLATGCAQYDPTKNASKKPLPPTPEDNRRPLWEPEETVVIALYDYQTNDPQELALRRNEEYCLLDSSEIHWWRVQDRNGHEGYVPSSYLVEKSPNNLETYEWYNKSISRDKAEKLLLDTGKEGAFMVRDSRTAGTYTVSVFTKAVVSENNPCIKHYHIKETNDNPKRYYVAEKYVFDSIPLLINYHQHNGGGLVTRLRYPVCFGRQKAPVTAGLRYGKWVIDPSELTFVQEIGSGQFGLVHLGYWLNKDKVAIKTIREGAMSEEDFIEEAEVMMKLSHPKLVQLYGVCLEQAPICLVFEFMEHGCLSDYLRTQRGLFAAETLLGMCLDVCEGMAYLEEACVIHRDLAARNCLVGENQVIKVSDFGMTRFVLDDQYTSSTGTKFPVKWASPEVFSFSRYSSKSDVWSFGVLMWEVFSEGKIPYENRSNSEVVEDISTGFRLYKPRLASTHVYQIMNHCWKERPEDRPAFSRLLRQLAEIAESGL
Type: biochemical
Outline: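 Ki values come from Morrison quadratic fits of activity versus inhibitor concentration, adjusted for ATP-competitive inhibition against ATP/Km,app. Substrate and phosphopeptide from purified ITK reactions were resolved either microfluidically (Caliper, EDTA stop) or by LC-MS MRM (TCA stop).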

| Ki [nM] | SMILES |
| --- | --- |
| 22 | CC(CO)c1ccc2[nH]nc(C(=O)Nc3cnn(Cc4cccc(C#N)c4)c3)c2c1 (stereo not shown) [Example 186, N-[1-[(3-cyanophenyl)meth-yl]pyrazol-4-yl]-5-(2-hydroxy-1-methyl-ethyl)-1H-indazole-3-carboxamide] |
| 7.8 | CC(CO)c1ccc2[nH]nc(C(=O)Nc3cnn(Cc4cccc(C#N)c4)c3)c2c1 (stereo not shown) [Example 187, N-[1-[(3-cyanophenyl)meth-yl]pyrazol-4-yl]-5-(2-hydroxy-1-methyl-ethyl)-1H-indazole-3-carboxamide] |
| 1600 | CN1CCC(c2ccc3c(C(=O)Nc4cnn(Cc5cccc(C#N)c5)c4)n[nH]c3c2)C1 (stereo not shown) [Example 188, N-[1-[(3-cyanophenyl)meth-yl]pyrazol-4-yl]-6-(1-methylpyrrolidin-3-yl)-1H-indazole-3-carboxamide] |
| 24.8 | CNc1cncc(-c2ccc3c(C(=O)Nc4cnn(Cc5ccccc5)c4)n[nH]c3c2)n1 [Example 189, N-(1-benzylpyrazol-4-yl)-6-[6-(methylamino)py-razin-2-yl]-1H-indazole-3-carboxamide] |
| 18.5 | CNc1ncc(-c2ccc3c(C(=O)Nc4cnn(Cc5ccccc5)c4)n[nH]c3c2)s1 [Example 190, N-(1-benzylpyrazol-4-yl)-6-[2-(methylamino)thi-azol-5-yl]-1H-indazole-3-carboxamide] |
| 2400 | CN1CC(c2ccc3c(C(=O)Nc4cnn(Cc5cccc(C#N)c5)c4)n[nH]c3c2)C1 [Example 191, N-[1-[(3-cyanophenyl)meth-yl]pyrazol-4-yl]-6-(1-methylazetidin-3-yl)-1H-indazole-3-carboxamide] |
| 10.2 | CC(C)n1cc(NC(=O)c2n[nH]c3cc(-c4cn[nH]c4)ccc23)cn1 [Example 192, N-(1-isopropylpyrazol-4-yl)-6-(1H-pyrazol-4-yl)-1H-indazole-3-carboxamide] |
| 26.3 | N#Cc1cccc(Cn2cc(NC(=O)c3n[nH]c4ccc(C5(CO)CC5)cc34)cn2)c1 [Example 193, N-[1-[(3-cyanophenyl)meth-yl]pyrazol-4-yl]-5-[1-(hydroxymeth-yl)cyclopropyl]-1H-indazole-3-carboxamide] |
| 106 | N#Cc1cccc(Cn2cc(NC(=O)c3n[nH]c4ccc(NC5CCOCC5)cc34)cn2)c1 [Example 194, N-[1-[(3-cyanophenyl)meth-yl]pyrazol-4-yl]-5-(tetrahydropyran-4-ylamino)-1H-indazole-3-carboxamide] |
| 42.4 | N#Cc1cccc(Cn2cc(NC(=O)c3n[nH]c4ccc(NC5CCCCC5)cc34)cn2)c1 [Example 195, N-[1-[(3-cyanophenyl)meth-yl]pyrazol-4-yl]-5-(cyclohexylamino)-1H-indazole-3-carboxamide] |
| 354 | Cn1nccc1-c1ccc2c(C(=O)Nc3cnn(Cc4cccc(C#N)c4)c3)n[nH]c2c1 [Example 196, N-[1-[(3-cyanophenyl)meth-yl]pyrazol-4-yl]-6-(2-methylpyrazol-3-yl)-1H-indazole-3-carboxamide] |
| 2.04 | N#Cc1cccc(Cn2cc(NC(=O)c3n[nH]c4cc(-c5cnco5)ccc34)cn2)c1 [Example 197, N-[1-[(3-cyanophenyl)meth-yl]pyrazol-4-yl]-6-oxazol-5-yl-1H-indazole-3-carboxamide] |
| 183 | Cn1nc(C(F)(F)F)cc1-c1ccc2c(C(=O)Nc3cnn(Cc4cccc(C#N)c4)c3)n[nH]c2c1 [Example 198, N-[1-[(3-cyanophenyl)meth-yl]pyrazol-4-yl]-6-[2-methyl-5-(trifluorometh-yl)pyrazol-3-yl]-1H-indazole-3-carboxamide] |
| 8.41 | Cc1cncc(-c2ccc3c(C(=O)Nc4cnn(Cc5cccc(C#N)c5)c4)n[nH]c3c2)c1 [Example 199, N-[1-[(3-cyanophenyl)meth-yl]pyrazol-4-yl]-6-(5-methyl-3-pyridyl)-1H-indazole-3-carboxamide] |
| 0.727 | CN(C)CCC(c1cscn1)n1cc(NC(=O)c2n[nH]c3cc(-c4cn[nH]c4)ccc23)cn1 (stereo not shown) [Example 200, N-[1-[3-(dimethylamino)-1-thiazol-4-yl-propyl]pyrazol-4-yl]-6-(1H-pyrazol-4-yl)-1H-indazole-3-carboxamide] |
| 2.89 | CN(C)CCC(c1cscn1)n1cc(NC(=O)c2n[nH]c3cc(-c4cn[nH]c4)ccc23)cn1 (stereo not shown) [Example 201, N-[1-[3-(dimethylamino)-1-thiazol-4-yl-propyl]pyrazol-4-yl]-6-(1H-pyrazol-4-yl)-1H indazole-3-carboxamide] |
| 5.77 | N#Cc1cccc(Cn2cc(NC(=O)c3n[nH]c4cc(-c5cncs5)ccc34)cn2)c1 [Example 202, N-[1-[(3-cyanophenyl)meth-yl]pyrazol-4-yl]-6-thiazol-5-yl-1H-indazole-3-carboxamide] |

| Ki [nM] | SMILES |
| --- | --- |
| 1100 | Cn1ccc(-c2ccc3c(C(=O)Nc4cnn(Cc5cccc(C#N)c5)c4)n[nH]c3c2)n1 [Example 203, N-[1-[(3-cyanophenyl)meth-yl]pyrazol-4-yl]-6-(1-methylpyrazol-3-yl)-1H-indazole-3-carboxamide] |
| 37.8 | O=C(Nc1cnn(Cc2ccccc2)c1)c1n[nH]c2cc(-c3cnccn3)ccc12 [Example 204, N-(1-benzyl-1H-pyrazol-4-yl)-6-(pyrazin-2-yl)-1H-indazole-3-carboxamide] |
| 131 | O=C(Nc1cnn(Cc2ccccc2)c1)c1n[nH]c2cc(-c3ccnnc3)ccc12 [Example 205, N-(1-benzylpyrazol-4-yl)-6-pyridazin-4 yl-1H-indazole-3 carboxamide] |
| 129 | N#Cc1ccc2c(C(=O)Nc3cnn(Cc4ccccc4)c3)n[nH]c2c1 [Example 206, N-(1-benzylpyrazol-4-yl)-6-cyano-1H-indazole-3-carboxamide] |
| 9.39 | O=C(Nc1cnn(Cc2ccccc2)c1)c1n[nH]c2cc(-c3cncc(Cl)c3)ccc12 [Example 207, N-(1-benzylpyrazol-4-yl)-6-(5-chloro-3-pyridyl)-1H-indazole-3-carboxamide] |
| 458 | COC1CCN(c2ccc3c(C(=O)Nc4cnn(Cc5cccc(C#N)c5)c4)n[nH]c3c2)C1 (stereo not shown) [Example 208, N-[1-[(3-cyanophenyl)meth-yl]pyrazol-4-yl]-6-(3-methoxypyrrolidin-1-yl)-1H-indazole-3-carboxamide] |
| 66.2 | O=C(Nc1cnn(Cc2ccccc2)c1)c1n[nH]c2cc(-c3cnc4c(c3)CCCO4)ccc12 [Example 209, N-(1-benzylpyrazol-4-yl)-6-(3,4-dihydro-2H-pyrano[2,3-b]pyridin-6-yl)-1H-indazole-3-carboxamide] |
| 5 | O=C(Nc1cnn(Cc2ccccc2)c1)c1n[nH]c2cc(-c3cncc(F)c3)ccc12 [Example 210, N-(1-benzylpyrazol-4-yl)-6-(5-fluoro-3-pyridyl)-1H-indazole-3-carboxamide] |
| 53.8 | CCC(c1ccccc1)n1cc(NC(=O)c2n[nH]c3cc(-c4cncc(OC)c4)ccc23)cn1 (stereo not shown) [Example 211, 6-(5-methoxy-3-pyridyl)-N-[1-(1-phenylpropyl)py-razol-4-yl]-1H-indazole-3-carboxamide] |
| 1.64 | COc1cncc(-c2ccc3c(C(=O)Nc4cnn(C(CCN(C)C)c5ccccc5)c4)n[nH]c3c2)c1 (stereo not shown) [Example 212, N-[1-[3-(dimethylamino)-1-phenyl-propyl]pyrazol-4-yl]-6-(5-methoxy-3-pyridyl)-1H-indazole-3-carboxamide] |
| 8.01 | COc1cncc(-c2ccc3c(C(=O)Nc4cnn(C(CCN(C)C)c5ccccc5)c4)n[nH]c3c2)c1 (stereo not shown) [Example 213, N-[1-[3-(dimethylamino)-1-phenyl-propyl]pyrazol-4-yl]-6-(5-methoxy-3-pyridyl)-1H-indazole-3-carboxamide] |
| 7.17 | CCC(c1ccccc1)n1cc(NC(=O)c2n[nH]c3cc(-c4cncc(OC)c4)ccc23)cn1 (stereo not shown) [Example 214, 6-(5-methoxy-3-pyridyl)-N-[1-(1-phenylpropyl)py-razol-4-yl]-1H-indazole-3-carboxamide] |
| 17.2 | COc1cncc(-c2ccc3c(C(=O)Nc4cnn(Cc5cccnc5)c4)n[nH]c3c2)c1 [Example 215, 6-(5-methoxy-3-pyridyl)-N-[1-(3-pyridylmethyl)py-razol-4-yl]-1H-indazole-3-carboxamide] |
| 1.12 | O=C(Nc1cnn(Cc2cccnc2)c1)c1n[nH]c2cc(-c3cn[nH]c3)ccc12 [Example 216, 6-(1H-pyrazol-4-yl)-N-[1-(3-pyridylmethyl)py-razol-4-yl]-1H-indazole-3-carboxamide] |
| 404 | CNc1cc(-c2ccc3c(C(=O)Nc4cnn(Cc5ccccc5)c4)n[nH]c3c2)ncn1 [Example 217, N-(1-benzylpyrazol-4-yl)-6-[6-(methylamino)py-rimidin-4-yl]-1H-indazole-3-carboxamide] |
| 3.19 | O=C(Nc1cnn(Cc2ccncc2)c1)c1n[nH]c2cc(-c3cn[nH]c3)ccc12 [Example 218, 6-(1H-pyrazol-4-yl)-N-[1-(4-pyridylmethyl)py-razol-4-yl]-1H-indazole-3-carboxamide] |
| 23 | COc1cncc(-c2ccc3c(C(=O)Nc4cnn(Cc5ccncc5)c4)n[nH]c3c2)c1 [Example 219, 6-(5-methoxy-3-pyridyl)-N-[1-(4-pyridylmethyl)py-razol-4-yl]-1H-indazole-3-carboxamide] |
